SMILES strings stand for the structures.

The assay deals with T1, rat mGluR1a receptor (Rattus norvegicus, UniProt P23385).
T1 construct: expressed in transfected cells; host or cells: Chinese Hamster Ovary cells (CHO-1a), stably transfected
Kind of assay: mGluR1 assay: antagonism of glutamate-evoked calcium internalisation in CHO-1a cells (FLIPr). It is filed as cell-based. The note with it: CHO cells stably transfected with rat mGluR1a; 40 μM glutamate challenge; IC50 values converted to modified Ki values; read-out: binding affinities (mGluR1 assay). How it is done: The ability of compounds of formula (I) to antagonise glutamate-evoked increases in calcium internalisation in an mGluR1 expressing cell line may be measured using the assay described below.
Chinese Hamster Ovary cells stably-transfected with the rat mGluR1a receptor (CHO-1a) were used in the assay. CHO-1a cells were seeded onto shallow 96 well plates and assayed at a confluency of 80-90%. Cells were loaded with Fluo-3-AM dye (8.8 μM final concentration; excitation 488 nm, emission 530 nm) in the presence of probenecid (2.5 mM), for 45-90 minutes at 37° C., after which time excess dye was removed by washing. The cell plate was then loaded onto a fluorometric imaging plate reader (FLIPr, Molecular Devices). Baseline readings were measured for 30 seconds. Test compounds were added by the FLIPr and allowed to equilibrate for 5 minutes before the addition of a 40 μM glutamate challenge (this was the approximate ED90 for glutamate against the receptor expressed in these cells). Readings were taken for a further 2 minutes. Measurements were made of the area of peak obtained in response to the glutamate addition and inhibition curves were constructed. Glutamate dose-response curves were included on each experimental day to allow IC50 values to be converted to modified Ki values.

T1 sequence (P23385 19-1199): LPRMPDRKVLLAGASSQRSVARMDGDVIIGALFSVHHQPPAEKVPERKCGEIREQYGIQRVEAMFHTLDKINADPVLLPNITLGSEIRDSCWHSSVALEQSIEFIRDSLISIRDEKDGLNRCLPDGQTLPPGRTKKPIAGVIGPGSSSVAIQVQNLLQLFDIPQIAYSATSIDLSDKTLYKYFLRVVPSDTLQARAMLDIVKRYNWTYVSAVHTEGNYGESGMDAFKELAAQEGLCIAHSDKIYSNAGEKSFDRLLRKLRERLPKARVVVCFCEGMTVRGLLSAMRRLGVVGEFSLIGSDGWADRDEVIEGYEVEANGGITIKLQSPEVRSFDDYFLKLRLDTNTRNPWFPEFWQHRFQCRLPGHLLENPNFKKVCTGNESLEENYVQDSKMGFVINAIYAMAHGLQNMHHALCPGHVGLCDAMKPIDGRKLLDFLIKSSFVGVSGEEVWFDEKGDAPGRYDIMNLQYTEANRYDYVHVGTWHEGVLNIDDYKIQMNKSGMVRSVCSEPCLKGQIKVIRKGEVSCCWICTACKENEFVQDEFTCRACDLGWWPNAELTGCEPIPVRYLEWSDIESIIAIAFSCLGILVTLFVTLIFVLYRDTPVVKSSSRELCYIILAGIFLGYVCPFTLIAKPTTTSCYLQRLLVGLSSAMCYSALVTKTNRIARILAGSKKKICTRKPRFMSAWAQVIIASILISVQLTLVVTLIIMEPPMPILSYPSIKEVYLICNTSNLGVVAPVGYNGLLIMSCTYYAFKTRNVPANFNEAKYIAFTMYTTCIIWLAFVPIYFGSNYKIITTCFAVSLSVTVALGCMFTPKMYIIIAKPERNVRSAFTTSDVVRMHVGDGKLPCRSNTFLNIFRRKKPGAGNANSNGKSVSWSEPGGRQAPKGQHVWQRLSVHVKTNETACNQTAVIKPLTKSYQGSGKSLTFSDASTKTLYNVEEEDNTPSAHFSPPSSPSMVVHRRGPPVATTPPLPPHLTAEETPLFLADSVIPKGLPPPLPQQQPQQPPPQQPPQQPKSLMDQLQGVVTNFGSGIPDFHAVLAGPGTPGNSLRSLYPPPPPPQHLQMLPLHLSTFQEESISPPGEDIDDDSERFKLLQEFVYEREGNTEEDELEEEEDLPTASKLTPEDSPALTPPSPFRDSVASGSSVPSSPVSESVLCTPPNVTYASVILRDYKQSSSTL

Consider `OC1CCN(c2cc3c(NC4CCCCCC4)ncnc3cn2)CC1` [Example 1, 1-(4-Cycloheptylamino-pyrido[3,4-d]pyrimidin-6-yl)-piperidin-4-ol], for which the Ki amounted to 3 nM. For `OCCCNc1cc2c(NC3CCCCCC3)ncnc2cn1` [Example 3], the Ki came to 2 nM.

For the origin of these results see patent publication US20050038047A1, “Azaquinazoline derivatives” (priority 2003, published 2005).
